In US20240269305A1, “STING AGONIST SUITABLE AS PAYLOAD OF ANTIBODY DRUG CONJUGATE” (HITGEN INC., priority 2021, published 2024):

What was measured:
[1] = system: STING signaling pathway; assay: IFN-β production in THP1 cells (ELISA); assay type: cell-based; conditions: Homo sapiens, read-out: IFN-β EC50
Description: In this experiment, the function of sting agonists was evaluated by detecting the changes of IFN-β and CXCL10 (IP10) cytokines which were produced by the stimulation of the compounds to human peripheral blood mononuclear cell line THP1 cell (Shanghai Cell Bank). On the first day of the experiment, ELISA plates were coated according to the instructions of IFN-β (R&D, #DY814-05) and IP10 (BD, #550926) ELISA detection kits. The compound was dissolved in DMSO as a stock solution, which was diluted with culture medium to a 2× working concentration, and then added to a 96-well plate at 100 μL per well; THP1 cells in the logarithmic growth phase were counted and diluted to a concentration of 2*10^6/mL, which was then added at 100 μL per well to the aforementioned 96-well plate containing the compounds. After mixed, the above cells in the 96-well plate were incubated at 37° C. and 5% CO2 for 18 h. On the second day, the above cell culture supernatant was aspirated at 100 μL per well, and then their OD450 values were determined using the IFN-β and IP10 ELISA detection kits respectively. The obtained data was converted to the concentration of IFN-β and IP10 according to the standard curve, and the EC50 values were calculated using GraphPad 5.0 to fit the dose-effect curve.

[2] = Cytotoxicity in THP1-Blue ISG cells (Celltiter Glo); assay type: cell-based, human; conditions: Celltiter Glo luminescence; for CC50 at 18 h: human
Description: (§1) In this experiment, THP1-Blue™ ISG (interferon-stimulated genes) cell line (InvivoGen, catalog number: thp-isg) was used to evaluate the activating of interferon signaling pathway after the treatment by the compounds. THP1-Blue™ ISG cells were cultured using RPMI1640 medium (containing 10% heat-inactivated fetal bovine serum, 100 μg/ml Zeocin™, InvivoGen, catalog number: ant-zn-1). On the first day of the experiment, the compound was dissolved in DMSO as a stock solution, which was then diluted with culture medium to 2× working concentration and then 100 μL per well of the above dilution was added to a 96-well plate; THP1 cells in the logarithmic growth phase were counted and diluted to a concentration of 1*10^6 cells/mL, which was then added at 100 μL per well (1*10^5 cells/well) to the aforementioned 96-well plate containing the compounds. After mixed, the above cells in the 96-well plate were incubated at 37° C. with 5% CO2 for 18 h. On the second day, the above cell culture supernatant was aspirated at 20 μL per well, which was added to a new 96-well plate. And then 180 μL per well of QUANTI-Blue™ solution (InvivoGen, catalog number: rep-qbs1) was added. The above cells in the 96-well plate were incubated at 37° C. for 1 h. OD (620-655 nm) value was read on a Microplate Reader, and the EC50 value was calculated by using GraphPad to fit the dose-effect curve. 50 μL of Celltiter Glo solution (Promega, Cat. No. G756B) was added to the remaining cell culture plates.

[3] = system: STING signaling pathway; assay: Cytokine secretion in PBMC (ELISA); assay type: cell-based; conditions: 6 h
Description: (§2) The following experiments were performed to determine the activation effect of the compound on the STING signaling pathway in PBMC cells, which mainly using ELISA to detect the secretion of IL-6, TNF-, IFN-, and IFN- in the cell culture supernatant. At the same time, CTG (CellTiter-Glo) was used to detect the survival rate of the cells, and to calculate the half cytotoxic dose of cells CC50.
(§3) The frozen PBMC cells were placed in a 37° C. water bath. After the ice was completely melted, the cells were transferred to 3 ml of RPMI 1640 complete culture medium (containing 10% FBS), and then centrifuged at 1500 rpm for 3 minutes. After removing the supernatant, the cells were re-suspended for counting. 200 μL of 50,000 PBMC cells were added in a 96-well plate, and the compounds to be tested were diluted with different gradient concentrations. After 6 h, 150 μL of the cell supernatant was aspirated, and the concentrations of IL-6, TNF-, IFN-, and IFN- were measured using ELISA kits, and the curves of compound concentration and cytokine release were drawn to calculate the values of EC50. 50 μL of CTG solution was added to the remaining cell culture plate.

[4] = Cytotoxicity in PBMC (CellTiter-Glo); assay type: cell-based; conditions: PBMC cells, CTG
Description: as §2, §3

[5] = system: STING signaling pathway; assay: THP1-Blue ISG reporter assay (QUANTI-Blue); assay type: cell-based, human
Description: as §1

[6] = THP-1, THP1 cells, 18 h incubation, ELISA of culture supernatant
[7] = ELISA of supernatant, read-out: IFN-β EC50
[8] = ELISA of supernatant, read-out: IL-6 EC50
[9] = ELISA of supernatant, read-out: TNF-α EC50
[10] = Homo sapiens, THP1-Blue ISG cells, 18 h incubation, QUANTI-Blue OD 620-655 nm, read-out: EC50
[11] = THP1-Blue ISG cells, 18 h incubation, QUANTI-Blue OD 620-655 nm, read-out: EC50

| Structure (SMILES) | EC50 [1, 6] [nM] | EC50 [3, 7] [nM] | EC50 [3, 8] [nM] | EC50 [3, 9] [nM] | EC50 [5, 10] [nM] | CC50 at 18 h [2] [nM] | CC50 at 6 h [4] [nM] | other results |
| --- | --- | --- | --- | --- | --- | --- | --- | --- |
| CCc1nc(C)sc1C(=O)Nc1nc2cc(C(N)=O)cc(OCCCN3CCN(C(=O)C(C)(C)CCNC(=O)OCCCNC(=O)OCc4ccc(NC(=O)[C@H](CCCNC(N)=O)NC(=O)[C@@H](NC(=O)CCCCCN5C(=O)C=CC5=O)C(C)C)cc4)CC3)c2n1C/C=C/Cn1c(NC(=O)c2cc(C)nn2CC)nc2cc(C(N)=O)cc(SC)c21 [Example 41] |  |  | 100 to 1000 | 100 to 1000 |  | > 50000 |  | EC50 [5, 11]: < 100 nM |
| CCc1nc(C)sc1C(=O)Nc1nc2cc(C(N)=O)cc(OCCCN3CCN(C(=O)OCCCNC(=O)OCc4ccc(NC(=O)[C@H](CCCNC(N)=O)NC(=O)[C@@H](NC(=O)CCCCCN5C(=O)C=CC5=O)C(C)C)cc4)CC3)c2n1C/C=C/Cn1c(NC(=O)c2cc(C)nn2CC)nc2cc(C(N)=O)cc(SC)c21 [Example 40] |  |  | < 100 | < 100 |  |  |  | CC50 ([2]; 18 h): > 50000 nM; EC50 [5, 11]: < 100 nM |
| CCc1nc(C)sc1C(=O)Nc1nc2cc(C(N)=O)cc(OCCCN3CCOCC3)c2n1C/C=C/Cn1c(NC(=O)c2c(F)c(C)nn2CC)nc2cc(C(N)=O)cc(OCCCN)c21 [Example 19] | > 1000 |  |  |  |  |  |  |  |
| CCc1nc(C)sc1C(=O)Nc1nc2cc(C(N)=O)cc(OCCCN3CCN(C(=O)OCCCC4CCNCC4)CC3)c2n1C/C=C/Cn1c(NC(=O)c2cc(C)nn2CC)nc2cc(C(N)=O)cc(SC)c21 [Example 8] |  |  |  |  |  |  |  | EC50 ([1]; THP-1, 18 h): 100 to 1000 nM |
| CCc1nc(C)sc1C(=O)Nc1nc2cc(C(N)=O)cc(OCCCN3CCN(C(=O)OCCCN)CC3)c2n1C/C=C/Cn1c(NC(=O)c2cc(C)nn2CC)nc2cc(C(N)=O)cc(SC)c21 [Example 10] |  |  |  |  |  | > 50000 | > 40000 | EC50 ([1]; THP-1, 18 h): 100 to 1000 nM; EC50 ([3]; read-out: IFN-β EC50): 100 to 1000 nM; EC50 ([3]; read-out: IL-6 EC50): 100 to 1000 nM; EC50 ([3]; read-out: TNF-α EC50): 100 to 1000 nM; EC50 ([5]; Homo sapiens, THP1-Blue ISG, 18 h): < 100 nM |
| CCc1nc(C)sc1C(=O)Nc1nc2cc(C(N)=O)cc(SC)c2n1C/C=C/Cn1c(NC(=O)c2c(F)c(C)nn2CC)nc2cc(C(N)=O)cc(OCCCN3CCN(C(=O)OCCCC4CCNCC4)CC3)c21 [Example 14] | 100 to 1000 | 100 to 1000 | 100 to 1000 | < 100 | < 100 | > 50000 | > 50000 |  |
| CCc1nc(C)sc1C(=O)Nc1nc2cc(C(N)=O)cc(OCCCN3CCOCC3)c2n1C/C=C/Cn1c(NC(=O)c2c(F)c(C)nn2CC)nc2cc(C(N)=O)cc(SCCCNC(=O)OCCCC3CCNCC3)c21 [Example 18] | > 1000 |  |  |  |  |  |  |  |
| CCc1nc(C)sc1C(=O)Nc1nc2cc(C(N)=O)cc(OCCCN3CCN(C(=O)CCCNC)CC3)c2n1C/C=C/Cn1c(NC(=O)c2cc(C)nn2CC)nc2cc(C(N)=O)cc(SC)c21 [Example 2] | 100 to 1000 | 100 to 1000 | 100 to 1000 | 100 to 1000 | < 100 | > 50000 | > 40000 |  |
| CCc1nc(C)sc1C(=O)Nc1nc2cc(C(N)=O)cc(OCCCN3CCN(C(=O)C(C)(C)CCN)CC3)c2n1C/C=C/Cn1c(NC(=O)c2cc(C)nn2CC)nc2cc(C(N)=O)cc(SC)c21 [Example 3] | 100 to 1000 | 100 to 1000 | 100 to 1000 | 100 to 1000 | < 100 | > 50000 | > 40000 |  |

Continued, in another order:

| EC50 [1, 6] [nM] | EC50 [3, 7] [nM] | EC50 [3, 8] [nM] | EC50 [3, 9] [nM] | EC50 [5, 10] [nM] | Structure (SMILES) | CC50 at 18 h [2] [nM] | CC50 at 6 h [4] [nM] | other results |
| --- | --- | --- | --- | --- | --- | --- | --- | --- |
| 100 to 1000 |  |  |  |  | CCc1nc(C)sc1C(=O)Nc1nc2cc(C(N)=O)cc(OCCCN3CCN(C(=O)OCCCC4CCNCC4)CC3)c2n1C/C=C/Cn1c(NC(=O)c2c(F)c(C)nn2CC)nc2cc(C(N)=O)cc(SC)c21 [Example 15] |  |  |  |
| 100 to 1000 | 100 to 1000 | < 100 | < 100 | < 100 | CCc1nc(C)sc1C(=O)Nc1nc2cc(C(N)=O)cc(SC)c2n1C/C=C/Cn1c(NC(=O)c2cc(C)nn2CC)nc2cc(C(N)=O)cc(OCCCN3CCN(C(=O)OCCCC4CCNCC4)CC3)c21 [Example 13] | > 50000 | > 50000 |  |
| > 1000 |  |  |  |  | CCc1nc(C)sc1C(=O)Nc1nc2cc(C(N)=O)cc(OCCCN3CCN(CCNC)CC3)c2n1C/C=C/Cn1c(NC(=O)c2cc(C)nn2CC)nc2cc(C(N)=O)cc(SC)c21 [Example 11] |  |  |  |
| > 1000 |  |  |  |  | CCc1nc(C)sc1C(=O)Nc1nc2cc(C(N)=O)cc(OCCCN3CCOCC3)c2n1C/C=C/Cn1c(NC(=O)c2c(F)c(C)nn2CC)nc2cc(C(N)=O)cc(SCCCN)c21 [Example 17] |  |  |  |
| > 1000 |  |  |  |  | CCc1nc(C)sc1C(=O)Nc1nc2cc(C(N)=O)cc(OCCCN3CCN(CCN)CC3)c2n1C/C=C/Cn1c(NC(=O)c2cc(C)nn2CC)nc2cc(C(N)=O)cc(SC)c21 [Example 12] |  |  |  |
| 100 to 1000 | 100 to 1000 | 100 to 1000 | 100 to 1000 | < 100 | CCc1nc(C)sc1C(=O)Nc1nc2cc(C(N)=O)cc(OCCCN3CCN(C(=O)CCN)CC3)c2n1C/C=C/Cn1c(NC(=O)c2cc(C)nn2CC)nc2cc(C(N)=O)cc(SC)c21 [Example 1] | > 50000 | > 25000 |  |
|  | 100 to 1000 | 100 to 1000 | 100 to 1000 | 100 to 1000 | CCc1nc(C)sc1C(=O)Nc1nc2cc(C(N)=O)cc(OC)c2n1C/C=C/Cn1c(NC(=O)c2cc(C)nn2CC)nc2cc(C(N)=O)cc(OCCCN3CCNCC3)c21 [Example 20] | > 50000 | > 50000 |  |
|  | 100 to 1000 | 100 to 1000 | < 100 | < 100 | CCc1nc(C)sc1C(=O)Nc1nc2cc(C(N)=O)cc(OCCCN3CCNCC3)c2n1C/C=C/Cn1c(NC(=O)c2cc(C)nn2CC)nc2cc(C(N)=O)cc(OC)c21 [Example 21] |  |  |  |
| 100 to 1000 |  |  |  |  | CCc1nc(C)sc1C(=O)Nc1nc2cc(C(N)=O)cc(OCCCN3CCN(C(=O)OCCCN4CCNCC4)CC3)c2n1C/C=C/Cn1c(NC(=O)c2cc(C)nn2CC)nc2cc(C(N)=O)cc(SC)c21 [Example 6] |  |  |  |
